Reference: patent publication US9102591B2, “Benzamides” (H. Lundbeck A/S, priority 2012, dated 2015)
pIC50: −log10 of the molar value.

Biological target: P2X7 receptor (Homo sapiens (Human), UniProt Q99572)
Experiment: P2X7 FLIPR assay (BzATP-stimulated calcium fluorescence, antagonist IC50)
Type: cell-based
Summary of the method: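 Cells expressing P2X7 receptor (human, rat or mouse), plated 24 hours earlier in low-serum medium, loaded with Fluo-4 NW dye (30 min 37° C, 30 min room temperature).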

Chain of P2X7 receptor (Q99572 whole entry): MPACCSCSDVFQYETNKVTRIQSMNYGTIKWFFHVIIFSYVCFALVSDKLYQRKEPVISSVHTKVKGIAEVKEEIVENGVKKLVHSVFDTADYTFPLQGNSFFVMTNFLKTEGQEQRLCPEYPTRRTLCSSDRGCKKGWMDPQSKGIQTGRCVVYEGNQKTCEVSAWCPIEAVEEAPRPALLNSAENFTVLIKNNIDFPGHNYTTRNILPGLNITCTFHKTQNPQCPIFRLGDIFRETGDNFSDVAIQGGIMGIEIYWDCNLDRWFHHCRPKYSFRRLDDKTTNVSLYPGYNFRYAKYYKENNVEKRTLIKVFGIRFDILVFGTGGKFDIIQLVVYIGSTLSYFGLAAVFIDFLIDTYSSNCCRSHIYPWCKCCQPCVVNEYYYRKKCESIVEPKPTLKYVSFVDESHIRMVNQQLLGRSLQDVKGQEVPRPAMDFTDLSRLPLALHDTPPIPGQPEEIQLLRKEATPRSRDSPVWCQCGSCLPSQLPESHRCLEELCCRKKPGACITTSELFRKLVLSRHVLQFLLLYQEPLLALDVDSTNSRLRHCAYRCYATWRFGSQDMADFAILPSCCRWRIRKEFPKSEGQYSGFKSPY

Row | SMILES | pIC50
1 | O=C(NCC(CC1CC1)c1cnc(C(F)(F)F)nc1)c1c(F)cccc1Cl (single isomer, unassigned; (+)) [(+)2-chloro-N-[3-cyclopropyl-2-[2-(trifluoromethyl)pyrimidin] [(+)2-chloro-N-[3-cyclopropyl-2-[2-(trifluoromethyl)pyrimidin-5-yl]propyl]-6-fluoro-benzamide] | 7.39
2 | O=C(NCC(c1ccc(F)cc1)c1cnc(C(F)(F)F)nc1)c1cccc(F)c1Cl (single isomer, unassigned; (+)) [(+)2-chloro-3-fluoro-N-[2-(4-fluorophenyl)-2-[2-(trifluorome] [(+)2-chloro-3-fluoro-N-[2-(4-fluorophenyl)-2-[2-(trifluoromethyl)pyrimidin-5-yl]ethyl]benzamide] | 8.32
3 | COc1ccc(C2(CNC(=O)c3cccc(C)c3C)CCCC2)cc1 [N-[1-(4-Methoxy-phenyl)-cyclopentylmethyl]-2,3-dimethyl-benzamide] | 6.22
4 | Cc1ncc(C(CNC(=O)c2c(F)cccc2Cl)C2CCOCC2)cn1 (stereo not drawn) [2-chloro-6-fluoro-N-[2-(2-methylpyrimidin-5-yl)-2-tetrahydropyran-4-yl-ethyl]benzamide] | 5.72
5 | Cc1ncc(C2(C(C)NC(=O)c3cccc(Cl)c3Cl)CCC(F)(F)CC2)cn1 (stereo not drawn) [2,3-dichloro-N-[1-[4,4-difluoro-1-(2-methylpyrimidin-5-yl)cyclohexyl]ethyl]benzamide] | 6.02
6 | CC(CNC(=O)c1cccc(F)c1Cl)(CC1CC1)c1cnc(C(F)(F)F)nc1 (single isomer, unassigned; (-)) [(−)2-chloro-N-[3-cyclopropyl-2-methyl-2-[2-(trifluoromethyl)] [(−)2-chloro-N-[3-cyclopropyl-2-methyl-2-[2-(trifluoromethyl)pyrimidin-5-yl]propyl]-3-fluoro-benzamide] | 7.47
7 | O=C(NCC(CC1CC1)c1cnc(C(F)(F)F)nc1)c1cccc(F)c1Cl (stereo not drawn) [2-chloro-N-(3-cyclopropyl-2-(2-(trifluoromethyl)pyrimidin-5-] [2-chloro-N-(3-cyclopropyl-2-(2-(trifluoromethyl)pyrimidin-5-yl)propyl)-3-fluorobenzamide] | 7.85
8 | O=C(NCC(c1cnc(C(F)(F)F)nc1)C1CCC(F)(F)CC1)c1c(F)cccc1Cl (single isomer, unassigned; (-)) [(−)2-chloro-N-[2-(4,4-difluorocyclohexyl)-2-[2-(trifluoromet] [(−)2-chloro-N-[2-(4,4-difluorocyclohexyl)-2-[2-(trifluoromethyl)pyrimidin-5-yl]ethyl]-6-fluoro-benzamide] | 7.21
9 | Cc1ncc(C(CNC(=O)c2cccc(Cl)c2Cl)CC2(C(F)(F)F)CC2)cn1 (single isomer, unassigned; (-)) [(−)2,3-dichloro-N-[2-(2-methylpyrimidin-5-yl)-3-[1-(trifluor] [(−)2,3-dichloro-N-[2-(2-methylpyrimidin-5-yl)-3-[1-(trifluoromethyl)cyclopropyl]propyl]benzamide] | 7.19
10 | O=C(NCC1(c2ccc(C(F)(F)F)nc2)CCC(F)(F)CC1)c1cccc(F)c1Cl [2-chloro-N-((4,4-difluoro-1-(6-(trifluoromethyl)pyridin-3-yl)cyclohexyl)methyl)-3-fluorobenzamide] | 8.85
11 | O=C(NCC1(c2ccc(Cl)cc2)CCOCC1)c1cc(Br)ccc1Cl [5-Bromo-2-chloro-N-[4-(4-chloro-phenyl)-tetrahydro-pyran-4-ylmethyl]-benzamide] | 6.89
12 | O=C(NCC(CC1CC1)c1ccc(C(F)(F)F)nc1)c1cccc(C(F)(F)F)c1Cl (single isomer, unassigned; (+)) [(+)2-chloro-N-[3-cyclopropyl-2-[6-(trifluoromethyl)-3-pyridy] [(+)2-chloro-N-[3-cyclopropyl-2-[6-(trifluoromethyl)-3-pyridyl]propyl]-3-(trifluoromethyl)benzamide] | 5.96
